In PubChem BioAssay AID2060599 (Molecular Pharmacology Branch, DTP, NCI, 2025):
pIC50: −log10 of the molar value.

Tested on: 817829-284-R-J1-PDC complex spheroids, viability
Assay: Anticancer human tumor 817829-284-R-J1-PDC patient-derived colon adenocarcinoma cell line growth inhibition [CLK]
Details: for pIC50: curve of first compound; for viability, T/C: stronger effect = lower value
In short: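 Patient-derived tumor cells grown as complex spheroids with HUVEC endothelial cells and mesenchymal stem cells, treated with drug combinations. Concentrations descend in half-log steps from near clinical Cmax, or from 10 microM if Cmax unknown.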

[1] = second compound 0.0316 µM, first compound 0.0316 µM
[2] = second compound 0.0316 µM, first compound 0.1 µM
[3] = second compound 0.1 µM, first compound 0.0316 µM
[4] = second compound 0.1 µM, first compound 0.1 µM
[5] = second compound 0.316 µM, first compound 0.0316 µM
[6] = second compound 0.316 µM, first compound 0.1 µM
[7] = second compound 1 µM, first compound 0.0316 µM
[8] = second compound 1 µM, first compound 0.1 µM
[9] = second compound 3.16 µM, first compound 0.0316 µM
[10] = second compound 3.16 µM, first compound 0.1 µM
[11] = second compound 10 µM, first compound 0.0316 µM
[12] = second compound 10 µM, first compound 0.1 µM
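Further: spheroids exposed to the agents for seven days before readout.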

Compound: CC(C)CC(NC(=O)C(Cc1ccccc1)NC(=O)c1cnccn1)B(O)O (stereo unspecified) + CNC(=O)c1ccc(Nc2nc(OC3CCCC3)c3c(-c4ccc5nc(C)oc5c4)c[nH]c3n2)c(OC)c1
- pIC50 (second compound 0.0316 µM): > 9.02
- pIC50 (second compound 0.1 µM): > 9.02
- pIC50 (second compound 0.316 µM): > 9.02
- pIC50 (second compound 1 µM): > 9.02
- pIC50 (second compound 3.16 µM): > 9.02
- pIC50 (second compound 10 µM): > 9.02
- viability, T/C (second compound 0.0316 µM, first compound 0.000949 µM): 31.9%
- viability, T/C (second compound 0.0316 µM, first compound 0.003 µM): 0.67%
- viability, T/C (second compound 0.0316 µM, first compound 0.00949 µM): 0.14%
- viability, T/C (second compound 0.0316 µM, first compound 0.03 µM): 0.16%
- viability, T/C (second compound 0.0316 µM, first compound 0.0949 µM): 0.14%
- viability, T/C (second compound 0.0316 µM, first compound 0.3 µM): 0.09%
- viability, T/C (second compound 0.1 µM, first compound 0.000949 µM): 25%
- viability, T/C (second compound 0.1 µM, first compound 0.003 µM): 0.93%
- viability, T/C (second compound 0.1 µM, first compound 0.00949 µM): 0.22%
- viability, T/C (second compound 0.1 µM, first compound 0.03 µM): 0.17%
- viability, T/C (second compound 0.1 µM, first compound 0.0949 µM): 0.11%
- viability, T/C (second compound 0.1 µM, first compound 0.3 µM): 0.1%
- viability, T/C (second compound 0.316 µM, first compound 0.000949 µM): 23%
- viability, T/C (second compound 0.316 µM, first compound 0.003 µM): 0.45%
- viability, T/C (second compound 0.316 µM, first compound 0.00949 µM): 0.13%
- viability, T/C (second compound 0.316 µM, first compound 0.03 µM): 0.6%
- viability, T/C (second compound 0.316 µM, first compound 0.0949 µM): 0.08%
- viability, T/C (second compound 0.316 µM, first compound 0.3 µM): 0.13%
- viability, T/C (second compound 1 µM, first compound 0.000949 µM): 14.7%
- viability, T/C (second compound 1 µM, first compound 0.003 µM): 0.18%
- viability, T/C (second compound 1 µM, first compound 0.00949 µM): 0.14%
- viability, T/C (second compound 1 µM, first compound 0.03 µM): 0.09%
- viability, T/C (second compound 1 µM, first compound 0.0949 µM): 0.13%
- viability, T/C (second compound 1 µM, first compound 0.3 µM): 0.16%
- viability, T/C (second compound 3.16 µM, first compound 0.000949 µM): 12.5%
- viability, T/C (second compound 3.16 µM, first compound 0.003 µM): 0.39%
- viability, T/C (second compound 3.16 µM, first compound 0.00949 µM): 0.14%
- viability, T/C (second compound 3.16 µM, first compound 0.03 µM): 0.1%
- viability, T/C (second compound 3.16 µM, first compound 0.0949 µM): 0.22%
- viability, T/C (second compound 3.16 µM, first compound 0.3 µM): 0.09%
- viability, T/C (second compound 10 µM, first compound 0.000949 µM): 11.3%
- viability, T/C (second compound 10 µM, first compound 0.003 µM): 0.15%
- viability, T/C (second compound 10 µM, first compound 0.00949 µM): 0.16%
- viability, T/C (second compound 10 µM, first compound 0.03 µM): 0.14%
- viability, T/C (second compound 10 µM, first compound 0.0949 µM): 0.23%
- viability, T/C (second compound 10 µM, first compound 0.3 µM): 0.11%

Compound: Cn1ncnc1[C@H]1c2n[nH]c(=O)c3cc(F)cc(c23)N[C@@H]1c1ccc(F)cc1 + CNC(=O)c1ccc(Nc2nc(OC3CCCC3)c3c(-c4ccc5nc(C)oc5c4)c[nH]c3n2)c(OC)c1
- pIC50 (second compound 0.0316 µM): > 9.50
- pIC50 (second compound 0.1 µM): > 9.50
- pIC50 (second compound 0.316 µM): > 9.50
- pIC50 (second compound 1 µM): > 9.50
- pIC50 (second compound 3.16 µM): > 9.50
- pIC50 (second compound 10 µM): > 9.50
- viability, T/C (second compound 0.0316 µM, first compound 0.000316 µM): 26.6%
- viability, T/C (second compound 0.0316 µM, first compound 0.001 µM): 36.8%
- viability, T/C (second compound 0.0316 µM, first compound 0.00316 µM): 27.3%
- viability, T/C (second compound 0.0316 µM, first compound 0.01 µM): 31.1%
- viability, T/C [1]: 25.3%
- viability, T/C [2]: 23.4%
- viability, T/C (second compound 0.1 µM, first compound 0.000316 µM): 20.5%
- viability, T/C (second compound 0.1 µM, first compound 0.001 µM): 21.1%
- viability, T/C (second compound 0.1 µM, first compound 0.00316 µM): 24.7%
- viability, T/C (second compound 0.1 µM, first compound 0.01 µM): 23.5%
- viability, T/C [3]: 22.3%
- viability, T/C [4]: 18.2%
- viability, T/C (second compound 0.316 µM, first compound 0.000316 µM): 24.1%
- viability, T/C (second compound 0.316 µM, first compound 0.001 µM): 17.5%
- viability, T/C (second compound 0.316 µM, first compound 0.00316 µM): 20.2%
- viability, T/C (second compound 0.316 µM, first compound 0.01 µM): 21.6%
- viability, T/C [5]: 18.6%
- viability, T/C [6]: 15.3%
- viability, T/C (second compound 1 µM, first compound 0.000316 µM): 18.1%
- viability, T/C (second compound 1 µM, first compound 0.001 µM): 20.1%
- viability, T/C (second compound 1 µM, first compound 0.00316 µM): 14.9%
- viability, T/C (second compound 1 µM, first compound 0.01 µM): 17.3%
- viability, T/C [7]: 22%
- viability, T/C [8]: 12.1%
- viability, T/C (second compound 3.16 µM, first compound 0.000316 µM): 24.5%
- viability, T/C (second compound 3.16 µM, first compound 0.001 µM): 19.9%
- viability, T/C (second compound 3.16 µM, first compound 0.00316 µM): 27.6%
- viability, T/C (second compound 3.16 µM, first compound 0.01 µM): 14.3%
- viability, T/C [9]: 16.7%
- viability, T/C [10]: 15.8%
- viability, T/C (second compound 10 µM, first compound 0.000316 µM): 16.8%
- viability, T/C (second compound 10 µM, first compound 0.001 µM): 13.4%
- viability, T/C (second compound 10 µM, first compound 0.00316 µM): 21.9%
- viability, T/C (second compound 10 µM, first compound 0.01 µM): 18.4%
- viability, T/C [11]: 16%
- viability, T/C [12]: 18.1%

Compound: O=C(c1cc(Cc2n[nH]c(=O)c3ccccc23)ccc1F)N1CCN(C(=O)C2CC2)CC1 + CNC(=O)c1ccc(Nc2nc(OC3CCCC3)c3c(-c4ccc5nc(C)oc5c4)c[nH]c3n2)c(OC)c1
- pIC50 (second compound 0.0316 µM): > 7.50
- pIC50 (second compound 0.1 µM): > 7.50
- pIC50 (second compound 0.316 µM): > 7.50
- pIC50 (second compound 1 µM): > 7.50
- pIC50 (second compound 3.16 µM): > 7.50
- pIC50 (second compound 10 µM): > 7.50
- viability, T/C [1]: 30.4%
- viability, T/C [2]: 42.9%
- viability, T/C (second compound 0.0316 µM, first compound 0.316 µM): 38%
- viability, T/C (second compound 0.0316 µM, first compound 1 µM): 26.7%
- viability, T/C (second compound 0.0316 µM, first compound 3.16 µM): 31.5%
- viability, T/C (second compound 0.0316 µM, first compound 10 µM): 22.4%
- viability, T/C [3]: 24.2%
- viability, T/C [4]: 19.2%
- viability, T/C (second compound 0.1 µM, first compound 0.316 µM): 30.9%
- viability, T/C (second compound 0.1 µM, first compound 1 µM): 22.9%
- viability, T/C (second compound 0.1 µM, first compound 3.16 µM): 24.2%
- viability, T/C (second compound 0.1 µM, first compound 10 µM): 24.6%
- viability, T/C [5]: 26.9%
- viability, T/C [6]: 22%
- viability, T/C (second compound 0.316 µM, first compound 0.316 µM): 27.7%
- viability, T/C (second compound 0.316 µM, first compound 1 µM): 31.5%
- viability, T/C (second compound 0.316 µM, first compound 3.16 µM): 25%
- viability, T/C (second compound 0.316 µM, first compound 10 µM): 17.2%
- viability, T/C [7]: 22.3%
- viability, T/C [8]: 20.1%
- viability, T/C (second compound 1 µM, first compound 0.316 µM): 20%
- viability, T/C (second compound 1 µM, first compound 1 µM): 17.8%
- viability, T/C (second compound 1 µM, first compound 3.16 µM): 16.9%
- viability, T/C (second compound 1 µM, first compound 10 µM): 14.7%
- viability, T/C [9]: 21.9%
- viability, T/C [10]: 20.9%
- viability, T/C (second compound 3.16 µM, first compound 0.316 µM): 19.4%
- viability, T/C (second compound 3.16 µM, first compound 1 µM): 25.5%
- viability, T/C (second compound 3.16 µM, first compound 3.16 µM): 18.5%
- viability, T/C (second compound 3.16 µM, first compound 10 µM): 22%
- viability, T/C [11]: 21.9%
- viability, T/C [12]: 22.9%
- viability, T/C (second compound 10 µM, first compound 0.316 µM): 30.8%
- viability, T/C (second compound 10 µM, first compound 1 µM): 18.1%
- viability, T/C (second compound 10 µM, first compound 3.16 µM): 15.8%
- viability, T/C (second compound 10 µM, first compound 10 µM): 15.3%
